System: arterial blood pressure of hypertensive Wistar rats
Conditions: 1 mg/kg

C[C@H](CS)C(=O)N1CCC[C@H]1C(=O)O [captopril]
fall of blood pressure (reference inhibitor): 60 mm Hg | time during which still quite effective in blocking angiotensin-converting enzyme (reference inhibitor): ≥ 180 min | time for blood pressure to return to baseline (reference inhibitor (not shown)): 240 min

Reference: patent US7335644B2, “Anti-hypertensive molecules and process for preparation thereof” (Council of Scientific and Industrial Research, priority 2003, dated 2008)
